Where two headings read alike, the source gives them in different places. No end group written: not given here.
Assays:
[1] = tested on: subjects with chronic CHF or ADCHF (NYHA class III - NYHA class IV); assay: Example 1: treatment of ADCHF with iv administration of vessel dilator; type: in vivo, human
Source text: This example describes a study to examine whether VSDL administration to ADCHF patients will be safe and induce improvements in haemodynamic parameters, as well as renal, natriuretic and diuretic parameters, whilst regulating plasma volume and BP within clinically acceptable ranges and without seriously adverse side effects.
VSDL in the form of a white lyophilised powder (synthesised using standard protein synthesis method by Auspep Pty Ltd, Parkville, VIC, Australia), stored in an ultra low freezer (−80° C.), was reconstituted in a vial with 10 ml of 0.9% saline (preservative free) and aseptically transferred into a 20 ml syringe (that connects to a patient cannula) before use.
Initially, an iv dose of 12.5 ng/kg/min was infused into test subjects for 60 minutes with a syringe driver (Alaris Asena GS syringe driver; C are Fusion Corporation, San Diego, Calif., United States of America). This “safety dose” was chosen merely to trial the subjects for any adverse effects. Subsequently, a dose of 25 ng/kg/min (as infused for 60 minutes) was trialled. Additionally, a trial will be conducted with a dose of 50 ng/kg/min (for 60 minutes).
Test adult subjects, both male and female, showing either acute exacerbations of chronic CHF or ADCHF (ie in individuals who had not previously shown heart failure), were recruited for the study. The following inclusion and exclusion criteria were applied:
In order to be eligible, a subject must have chronic CHF or ADCHF (NYHA class III—NYHA class IV) defined as: • 1. Showing dyspnoea at rest or dyspnoea with minimal activity (ie difficulty breathing at rest while sitting, or difficulty breathing while lying flat or with one pillow, or difficulty breathing with minimal activity such as talking, eating); AND • 2. Showing at least one of the following signs: • Tachypnoea with respiratory rate >20 breaths per minute, OR • Pulmonary congestion/oedema with rales or crackles/crepitations at least a third above lung bases; AND • 3. At least one of the following objective measures: • Showing, by chest X-ray, pulmonary oedema/congestions OR • Circulating B-type natriuretic peptide (BNP) concentration of ≧400 pg/ml or circulating NT-proBNP concentration of ≧1000 pg/ml at presentation, OR • PCWP >20 mmHg OR • Showing systolic dysfunction within the last 12 months (EF<50%) as determined by TTE, nuclear testing, cardiac MRI or ventricular angiography); and be: • 4. Male and/or female, 18 years or older; and • 5. If a woman of child bearing potential, testing negative to 13-hCG. Exclusion Criteria: • 1. Evidence in the ED for Myocardial Infarction (MI) or high risk acute coronary syndrome within past 6 weeks, as determined by creatinine kinase (CK)/creatinine kinase muscle-brain isoenzyme (CK-MB) ≧2 times upper limit of normal or elevation of Troponin T at baseline >0.1 or as determined by Trans-Thoracic […] (TTE); • 2. Hypotension (SBP <90 mmHg), cardiogenic shock, volume depletion; • 3. Persistent, uncontrolled hypertension (SBP >180 mm Hg); • 4. Subjects with the presence of any CMR contra-indication (including PPM, cerebral aneurysm clips or non-MM approved metallic implant) are excluded from any MRI study component only; • 5. Congenital heart defects (including Ventricular Septal Defect, Atrial Septal Defect, Patent Ductus Arteriosus, Tetralogy of Fallot, and Tricuspid Atresia); • 6. Cardiac surgery within past 4 weeks; • 7. Diastolic heart failure (preserved left ventricular function—determined by known history, ie E:E prime ratio>15); • 8. Severe valvular heart disease: Aortic Stenosis <1.0 cm^2, any Idiopathic hypertrophic subaortic stenosis or Hypertrophic Obstructive Cardiomyopathy, acute Aortic Regurgitation grade 3 or 4 and Mitral Regurgitation grade 3 or 4; • 9. History of cerebrovascular accident (within past 4 weeks) as determined by MM or Computerised Tomography (CT) Scan; • 10. […]

[2] = Example 2: estimation of baseline and Cmax for VSDL following infusion (blood samples, mass spectroscopy); type: in vivo, human; details: for half-life: read-out: estimated half-life (t1/2)
Source text: Following the surprising finding that beneficial effects for the treatment of chronic CHF can be achieved with doses that are much less than that which had been proposed, a study was undertaken to estimate the baseline levels of VSDL and Cmax (ie the peak VSDL concentration that is achieved) following infusion.
The baseline VSDL concentration (ie endogenous level) was estimated from an identical sample taken prior to infusion (ie “predose”).

[3] = Expected increase in total circulating VSDL at originally selected doses; type: in vivo, human
Experimental: Since it was thought that subjects suffering significant CHF are unable to produce adequate endogenous amounts of natriuretic peptides to compensate for congestion, the present applicant had selected doses of exogenous VSDL infusion of 50 ng/kg/min, 100 ng/kg/min and 200 ng/kg/min for 60 minutes to ascertain the approximate amounts of exogenous VSDL required by late NHYA class III—NYHA class IV patients to reinstate homeostasis. Such doses were expected to result in an approximately 2-fold, 4-fold and 8-fold increase in total circulating VSDL, respectively. Further, the present applicant had particularly proposed an exogenous dose of VSDL at <100 ng/kg/min (for 60 mins) for the treatment of chronic CHF or ADCHF as a safe and effective dosage, since it has been identified that the release rate from the heart of VSDL with physiological stimuli is about 138 ng/kg body weight per minute^16 and similar dosages have been previously observed to cause a marked natriuresis and diuresis in healthy humans^17, 18 and, also, improved haemodynamic and renal parameters in persons with stable NYHA class III chronic CHF^10. The molar equivalent of the 100 ng/kg body weight dose (for 60 mins) is 26 pmol/kg body weight (for 60 mins). […] In particular, at 12.5 ng/kg/min (for 60 mins) and 25 ng/kg/min (for 60 mins). […]

[4] = tested on: patients with chronic, but stable, New York Heart Association (NYHA) Class III CHF; details: cited from earlier work
[5] = cited from earlier work
[6] = 25 ng/kg/min iv for 60 mins, 24 hrs post-infusion
[7] = 25 ng/kg/min iv for 60 mins, Baseline
[8] = Subject #2, 12.5 ng/kg/min iv for 60 mins
[9] = Subject #3, 12.5 ng/kg/min iv for 60 mins
[10] = one subject, 25 ng/kg/min iv for 60 mins

Substance: EVVPPQVLSEPNEEAGAALSPLPEVPPWTGEVSPAQR [VSDL]
- safety risks seen by reviewers ([1]; 12.5 ng/kg/min iv for 60 mins, three subjects): no safety risks
- CK [1, 6]: 156 U/L
- CK-MB [1, 6]: 1.3 µg/L
- Troponin T [1, 6]: <0.02 µg/L
- CK [1, 7]: 188 U/L
- CK-MB [1, 7]: 2.0 µg/L
- Troponin T [1, 7]: <0.02 µg/L
- clinical state during the 24 hours following the infusion [1, 8]: stable during the 24 hours
- side-effects [1, 8]: global dyskinesis and no side-
- tolerability of infusion [1, 8]: infusion was well tolerated by
- clinical state during and within 24 hours following the infusion [1, 9]: clinically stable during this
- tolerability of infusion [1, 9]: subject tolerated the infusion
- safety risks seen by reviewers [1, 10]: no safety risks
- side effects [1, 10]: no side effects
- tolerability of infusion [1, 10]: well tolerated
- Corrected Concentration ([2]; 0.5 hrs following infusion): 4.376 ng/mL
- Corrected Concentration ([2]; 1 hrs following infusion): 4.376 ng/mL
- Corrected Concentration ([2]; 1.5 hrs following infusion): 1.176 ng/mL
- Corrected Concentration ([2]; 2 hrs following infusion): 0.556 ng/mL
- Corrected Concentration ([2]; 3 hrs following infusion): 0.136 ng/mL
- Corrected Concentration ([2]; 4 hrs following infusion): 0.061 ng/mL
- Corrected Concentration ([2]; 5 hrs following infusion): 0.022 ng/mL
- Corrected Concentration ([2]; 6 hrs following infusion): 0.005 ng/mL
- Corrected Concentration ([2]; 12 hrs following infusion): 0.018 ng/mL
- Corrected Concentration ([2]; Predose): 0.024 ng/mL
- half-life ([2]; human, blood, intravenous, terminal elimination rate using the LOQ of 0.2 ng/ml): 20 min
- half-life ([2]; human, blood, intravenous, using the point just below the LOQ, excluding and including the Cmax values): 25 to 30 min
- Tmax ([2]; human, blood, intravenous, CHF patient (NYHA class III), following infusion): 30 min
- level at 0.5 h ([2]; human, blood, iv, 0.5 hrs following infusion, read-out: Concentration): 4.4 ng/mL
- level at 1 h ([2]; human, blood, iv, 1 hrs following infusion, read-out: Concentration): 4.4 ng/mL
- level at 1.5 h ([2]; human, blood, iv, 1.5 hrs following infusion, read-out: Concentration): 1.2 ng/mL
- level at 2 h ([2]; human, blood, iv, 2 hrs following infusion, read-out: Concentration): 0.58 ng/mL
- level at 3 h ([2]; human, blood, iv, 3 hrs following infusion, read-out: Concentration): 0.16 ng/mL
- level at 4 h ([2]; human, blood, iv, 4 hrs following infusion, read-out: Concentration): 0.085 ng/mL
- level at 5 h ([2]; human, blood, iv, 5 hrs following infusion, read-out: Concentration): 0.046 ng/mL
- level at 6 h ([2]; human, blood, iv, 6 hrs following infusion, read-out: Concentration): 0.029 ng/mL
- level at 12 h ([2]; human, blood, iv, 12 hrs following infusion, read-out: Concentration): 0.042 ng/mL
- Cmax ([2]; human, intravenous, CHF patient (NYHA class III), blood, following infusion, baseline-corrected): 4.38 ng/mL
- elimination of VSDL from the blood stream ([2]; measured concentration profile (FIG. 3)): does not clearly follow first order kinetics
- baseline (endogenous) VSDL concentration ([2]; predose blood sample, CHF patient (NYHA class III)): 0.024 ng/mL
- expected increase in total circulating VSDL ([3]; 100 ng/kg/min for 60 minutes): ~4 fold
- expected increase in total circulating VSDL ([3]; 200 ng/kg/min for 60 minutes): ~8 fold
- symptomatic side effects [4]: without any symptomatic side effects
- biological t1/2 ([5]; previously reported): > 6 hours
- circulatory t1/2 ([5]; previously reported): 120 min

Substance: B-type natriuretic peptide [BNP, reference compound]
- biological t1/2 ([5]; in vivo): < ½
- circulatory t1/2 ([5]; in vivo): ~3.1 min

— patent US9018168B2, “Therapeutic method for treating congestive heart failure” (Madeleine Pharmaceuticals Pty Ltd, priority 2010, dated 2015)
